Results on six molecules are retold here after US6358975B1, “Method of using selective parp inhibitors to prevent or treat neurotoxicity” (Johns Hopkins University, priority 1997, dated 2002).

Assay [1] relates to infarct size in the heart. The settings on record: rabbits, cited from earlier work.
The subject of assay [2] is NMDA- or NO-induced neurotoxicity in primary cortical cell cultures. The assay can be described thus: Attenuation of NMDA- and NO (SNP)-induced neurotoxicity in primary cortical cell cultures (Example 1, FIG. 1). It counts as cell-based, mice. The conditions noted are these: for pEC50: Mus musculus, read-out: protection against NMDA- or NO-induced neurotoxicity, EC50 (50% of maximal protection). As for the experimental part:
Primary cortical cell cultures were prepared from gestational, 16-day fetal mice in a procedure modified from the described in Dawson et al., “Resistance to Neurotoxicity in Cortical Cultures from Neuronal Nitric Oxide Synthase Deficient Mice”, J. Neurosci., 16:2479-87 (1996), the disclosure of which is hereby incorporated by reference. Specifically, the cortex was dissected, and the cortical cells were dissociated by a 30-minute digestion in 0.027% trypsin/saline solution (commercially available from Gibco BRL, Gaithersburg, Md.), followed by trituration in modified Eagle's medium (MEM), 20% horse serum, 25 mM glucose and 2 mM L-glutamine.
The cells were plated on 15 mm multi-well plates coated with polyornithine. Four days after plating, the cells were treated with 5-fluoro-2-deoxyuridine for three days to inhibit the proliferation of non-neuronal cells. The cells were then maintained in MEM, 10% horse serum, 25 mM glucose, and 2 mM L-glutamine in an 8% CO2, humidified 37° C. incubator. The growth medium was refreshed twice per week, and the neurons were allowed to mature for 14 days in culture before being used for experiments.
Before treatment, these critical cultures were washed with Tris buffered control salt solution (CSS) containing 120 mM NaCl, 5.4 mM KCl, 1.8 mM CaCl2, 25 mM Tris-HCl (pH 7.4) and 15 mM glucose. The washed cells were treated with NMDA or the NO-donor sodium nitroprusside (SNP) for five minutes and then washed again. The cells were then placed in growth media and returned to the incubator overnight.
Each data point represented the mean ± standard error of the mean (SEM) (n=8) of at least two separate experiments and reflected a minimum of 16,000 neurons counted.

Assay [3] relates to OGD toxicity in cortical cultures. The assay can be described thus: Oxygen-glucose deprivation (OGD) toxicity in cortical cultures (FIG. 2C). It counts as cell-based, mice. The settings on record: 60 minutes OGD, MK801 10 μM, NArg 100 μM, L-arginine 1 mM, benzamide 500 μM; for effect on OGD toxicity in wild-type and PARP+/− cultures: DPQ 10 μM. As for the experimental part:
See Dawson et al., “Resistance to Neurotoxicity in Cortical Cultures from Neuronal Nitric Oxide Synthase Deficient Mice”, J. Neurosci., 16:2479-87 (1996), the disclosure of which is hereby incorporated by reference. Combined OGD was performed as described in Kaku et al., “Antagonism by non-NMDA Receptors Augments the Neuroprotective Effect of NMDA Receptor Blockage in Cortical Cultures Subjected to Prolonged Deprivation of Oxygen and Glucose”, Brain Res., 554:344-47 (1991) and/or Monyer et al., “Oxygen or Glucose Deprivation-induced Neuronal Injury in Cortical Cell Cultures is Reduced by Tetanus Toxin, Neuron, 8:967-73 (1992), both of which are hereby incorporated by reference.
Specifically, the culture media was completely exchanged with deoxygenated, glucose-free Earle's balanced salt solution (EBSS) containing: 116 mM NaCl, 5.4 mM KCl, 0.8 mM MgSO4, 1 mM NaH2PO4, and 0.9 mM CaCl2, bubbled with 5% H2/85% N2/5% CO2. The cultures were kept in a 37° C., anaerobic chamber for 60 minutes containing the gas mixture 5% H2/85% N2/5% CO2. Combined oxygen-glucose deprivation was terminated by removal of the cultures from the chamber and replacement of the EBSS solution with oxygenated growth media. The cultures were returned to a humidified incubator containing 5% CO2 and atmospheric oxygen at 37° C. overnight.
(§1) Toxicity was assayed 20-24 hours after exposure to cytotoxic conditions by microscopic examination with computer-assisted cell counting, following staining of all nuclei with 1 μg/ml Hoescht 33342 and staining of dead cell nuclei with 7 μg/ml propidium iodide. All reagents were purchased from Sigma Chemicals, St. Louis, Mo.
(§2) Both total and dead cells were counted. Glial nuclei fluoresce at a different intensity than neuronal nuclei and were gated out. The percentage of cell death was determined as the […], as compared to the percentage of cell death in control wells to account for cell death due to mechanical stimulation of the cultures. At least two separate experiments using four separate wells were performed. The results are shown in FIG. 2A, with a minimum of 15,000-20,000 neurons counted per data point, which represented the mean ± standard error of the mean (SEM)(n=8).

Assay [4] concerns NMDA toxicity in cerebral cortical cultures. The assay can be described thus: NMDA toxicity in cortical cultures from wild-type, PARP+/− and PARP−/− mice (FIG. 2B). It counts as cell-based. The conditions noted are these: for effect on NMDA toxicity in wild-type and PARP+/− cultures / effect on NMDA toxicity in PARP−/− cultures: 500 μM NMDA, BZD 500 μM, DPQ 10 μM; for effect on NMDA toxicity in wild-type and PARP+/− cultures: five minutes, MK801 1 μM, NArg 100 μM; for effect on NMDA toxicity in PARP−/− cultures: L-Arg 1 mM. As for the experimental part:
(§3) Mice were obtained having a targeted disruption of the PARP gene (PARP−/−), generated by the method of Wang et al., “Mice Lacking ADPRT and poly(ADP-ribosyl)ation Develop Normally But Are Susceptible to Skin Disease”, Genes Dev., 9:509-20 (1995), which is hereby incorporated by reference. The toxicity in cortical cultures elicited by a five-minute exposure to 500 μM NMDA, by 60 minutes of oxygen and glucose deprivation (OGD), and by NO-donors was evaluated, comparing cultures or cerebral cortical cells from wild-type and PARP−/− mice, as shown in FIG. 2A.
as §1, §2

The subject of assay [5] is toxicity elicited by the NO-donor SNP in cortical cultures. Nature of the assay: SNP (NO-donor) toxicity in cortical cultures from wild-type, PARP+/− and PARP−/− mice. The format is cell-based. As for the experimental part: as §3, §1
Both total and dead cells were counted. Glial nuclei fluoresce at a different intensity than neuronal nuclei and were gated out. The percentage of cell death was determined as the […], as compared to the percentage of cell death in control wells to account for cell death due to mechanical stimulation of the cultures. […] The results are shown in FIG. 2A, with a minimum of 15,000-20,000 neurons counted per data point, which represented the mean ± standard error of the mean (SEM)(n=8).

Assay [6] addresses poly(ADP-ribose) polymerase. The settings on record: read-out: IC50 for inhibiting PARP; reported by Suto et al.; cited from earlier work.
The test system of assay [7] is NMDA toxicity in cerebral cortical cultures. The conditions noted are these: concentration of 100 μM; Zhang et al. 1994; cited from earlier work.
Assay [8] deals with T1, PARP (Mus musculus, UniProt P11103).
T1 construct: from tissue; host or cells: mouse brain (forebrain) nuclear fraction, wild-type 129/SV
The assay can be described thus: PARP catalytic (self-modification) assay, mouse brain nuclear fraction. The format is biochemical. The settings on record: benzamide treatment.

pEC50, pIC50: −log10 of the molar value. Where two headings read alike, the source gives them in different places.

T1 sequence (P11103 whole entry): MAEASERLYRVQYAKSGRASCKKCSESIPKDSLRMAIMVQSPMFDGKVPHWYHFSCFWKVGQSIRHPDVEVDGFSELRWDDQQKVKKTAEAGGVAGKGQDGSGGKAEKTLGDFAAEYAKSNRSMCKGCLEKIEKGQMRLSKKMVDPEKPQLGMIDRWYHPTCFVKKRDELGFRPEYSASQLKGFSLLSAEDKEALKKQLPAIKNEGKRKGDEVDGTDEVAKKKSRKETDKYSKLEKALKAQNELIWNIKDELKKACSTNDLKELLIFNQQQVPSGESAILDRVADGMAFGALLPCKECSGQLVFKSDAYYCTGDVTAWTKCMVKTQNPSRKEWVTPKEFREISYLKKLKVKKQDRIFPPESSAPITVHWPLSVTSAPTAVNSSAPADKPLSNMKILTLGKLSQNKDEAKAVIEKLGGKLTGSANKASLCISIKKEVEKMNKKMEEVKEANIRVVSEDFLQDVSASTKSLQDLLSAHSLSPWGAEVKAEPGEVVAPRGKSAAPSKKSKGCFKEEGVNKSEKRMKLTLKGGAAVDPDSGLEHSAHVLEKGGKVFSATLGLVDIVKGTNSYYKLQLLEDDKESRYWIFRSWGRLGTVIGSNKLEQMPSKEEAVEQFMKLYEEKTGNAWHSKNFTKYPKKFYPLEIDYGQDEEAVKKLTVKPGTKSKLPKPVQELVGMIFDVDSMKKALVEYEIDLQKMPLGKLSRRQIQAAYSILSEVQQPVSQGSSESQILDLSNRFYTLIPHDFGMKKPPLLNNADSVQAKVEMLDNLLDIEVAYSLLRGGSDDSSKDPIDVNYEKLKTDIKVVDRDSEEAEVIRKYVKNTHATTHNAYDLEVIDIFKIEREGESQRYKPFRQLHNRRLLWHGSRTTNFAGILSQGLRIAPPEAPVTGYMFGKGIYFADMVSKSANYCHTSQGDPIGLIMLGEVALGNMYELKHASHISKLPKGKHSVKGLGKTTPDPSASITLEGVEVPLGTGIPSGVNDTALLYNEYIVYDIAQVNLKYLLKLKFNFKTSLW

On to `Oc1cccc2c(O)nccc12` [1,5-dihydroxyisoquinoline], for which the “reduction in infarct size” value in assay [1] (1 mg/kg) is recorded as 38-48%.

Take `NC(=O)c1cccc(N)c1` [3-aminobenzamide]: the “reduction in infarct size in the heart” value in assay [1] (single injection 10 mg/kg one minute before occlusion or one minute before reperfusion) is listed as 32-42%.

Regarding `O=C1NCCc2c(OCCCCN3CCCCC3)cccc21` [DPQ, 3,4-dihydro-5-[4-(1-piperidinyl)-butoxy]-1(2H)-isoquinolinone], the “potency relative to benzamide” value in assay [2] (DPQ vs benzamide) is 500 times. The pEC50 (in general, the negative decadic logarithm of the EC50, by convention in mol/L) in assay [2] (five-minute exposure to 500 μM NMDA or 500 μM SNP) is 6.70. The “effect on neurotoxicity at 10-100 μM” value in assay [2] (concentrations of 10-100 μM) was “virtually abolished neurotoxicity”. The “effect on OGD toxicity in wild-type and PARP+/− cultures” value in assay [3] is given as “abolished OGD toxicity”. In assay [4], the “effect on NMDA toxicity in wild-type and PARP+/− cultures” value was “significantly greater reduction of NMDA toxicity than benzamide”; the “effect on NMDA toxicity in PARP−/− cultures” value is “no significant effects”. In addition, in assay [5], the “effect on SNP toxicity in PARP−/− cultures” value was “no effect”. Also, the “effect on SNP toxicity in wild-type and PARP+/− cultures” value in assay [5] (not shown in FIG. 2) is “reduced the toxicity”. Also, in assay [6], the pIC50 – broadly, −log10 of the IC50, conventionally taken in molar units – is 7.40.

`N=C(N)NCCC[C@H](N)C(=O)O` [L-arginine]: in assay [3], the “effect on OGD toxicity in PARP−/− cultures” value is “not in PARP−/− cultures”; the “effect on OGD toxicity in wild-type and PARP+/− cultures” value was “reversed the nitroarginine protection”. The “effect on NMDA toxicity in PARP−/− cultures” value in assay [4] was “no significant effect”. For the same molecule, in assay [4] (L-Arg 1 mM with NArg 100 μM), the “reversal of nitroarginine neuroprotection against NMDA toxicity in wild-type cultures” value is on record as “reversed the neuroprotective effect of nitroarginine”.

Regarding `C[C@]12N[C@H](Cc3ccccc31)c1ccccc12` [MK801], in assay [3], the “effect on OGD toxicity in PARP−/− cultures” value is listed as “no differential effects”; the “effect on OGD toxicity in wild-type and PARP+/− cultures” value is “profoundly reduced toxicity”. Moreover, in assay [4], the “effect on NMDA toxicity in wild-type and PARP+/− cultures” value is reported as “abolished NMDA toxicity”.

As to `NC(=O)c1ccccc1` [benzamide], in assay [2] (500 μM NMDA or 500 μM SNP, maximally effective concentration), the “reduction of neurotoxicity at the maximally effective concentration” value was determined as 65%. The negative logarithm of the EC50 (pEC50) in assay [2] was around 4.00. In addition, in assay [7], the “protection against NMDA neurotoxicity” value is reported as around 50%. Besides, in assay [3], the “effect on OGD toxicity in PARP−/− cultures” value was “no influence”; the “effect on OGD toxicity in wild-type and PARP+/− cultures” value is recorded as “reduced OGD toxicity”. In assay [8], the “other ribosylated nuclear proteins (gray background) in wild-type catalytic assay” value is “reduced”. In assay [4], the “effect on NMDA toxicity in wild-type and PARP+/− cultures” value is recorded as “reduced NMDA toxicity”; the “effect on NMDA toxicity in PARP−/− cultures” value is reported as “no significant effect”.
